{
  "source": "paper PMC3597730",
  "about": "“Novel Phenolic Inhibitors of Small/Intermediate-Conductance Ca^2+-Activated K^+ Channels, KCa3.1 and KCa2.3” (PLoS ONE, 2013)",
  "key": {"[1]": {"target": "T1, KCa3.1 channels in 3T3 fibroblasts (Mus musculus, UniProt O89109)", "T1 construct": "KCa3.1 channels in 3T3 fibroblasts; endogenous in cells; host or cells: 3T3-L1 mouse embryonic fibroblasts", "experiment": "Whole-cell patch-clamp of KCa3.1 currents in 3T3 fibroblasts", "format": "cell-based"}, "hKCa2.3": {"target": "T2, hKCa2.3 (Homo sapiens, UniProt Q9UGI6)", "T2 construct": "expressed in transfected cells; host or cells: COS7", "T2 sequence (Q9UGI6 whole entry)": "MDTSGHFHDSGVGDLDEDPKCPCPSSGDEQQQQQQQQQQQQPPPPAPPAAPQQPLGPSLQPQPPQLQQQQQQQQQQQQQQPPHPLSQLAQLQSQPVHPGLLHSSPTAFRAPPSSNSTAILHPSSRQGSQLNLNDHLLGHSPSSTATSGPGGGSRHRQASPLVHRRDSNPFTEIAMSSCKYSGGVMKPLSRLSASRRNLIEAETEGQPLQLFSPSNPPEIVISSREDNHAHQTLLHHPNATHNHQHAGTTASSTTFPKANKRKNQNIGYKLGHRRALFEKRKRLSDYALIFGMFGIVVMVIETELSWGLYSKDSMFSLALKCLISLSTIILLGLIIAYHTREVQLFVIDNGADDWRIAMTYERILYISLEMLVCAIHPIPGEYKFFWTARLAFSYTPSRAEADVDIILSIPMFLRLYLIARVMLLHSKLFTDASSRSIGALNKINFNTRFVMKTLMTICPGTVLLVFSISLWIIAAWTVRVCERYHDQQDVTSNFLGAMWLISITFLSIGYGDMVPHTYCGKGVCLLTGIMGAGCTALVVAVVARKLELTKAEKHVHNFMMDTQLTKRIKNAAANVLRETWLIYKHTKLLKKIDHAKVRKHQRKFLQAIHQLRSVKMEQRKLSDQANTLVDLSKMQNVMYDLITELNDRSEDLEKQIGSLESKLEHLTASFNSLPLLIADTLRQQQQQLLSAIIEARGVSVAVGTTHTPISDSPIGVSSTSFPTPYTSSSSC", "experiment": "Whole-cell patch-clamp of hKCa2.3 in COS7 cells", "format": "cell-based"}, "KCa1.1": {"tested_on": "T3, KCa1.1", "T3 construct": "KCa1.1 in human U251 glioblastoma cells; endogenous in cells; host or cells: U251 glioblastoma cells", "experiment": "Whole-cell patch-clamp of KCa1.1 in U251 glioblastoma cells", "format": "cell-based, human"}, "hKv1.2": {"target": "T4, hKv1.2 (Homo sapiens, UniProt P16389)", "T4 construct": "expressed in transfected cells; host or cells: B82 murine fibroblasts (Methods)", "T4 sequence (P16389 whole entry)": "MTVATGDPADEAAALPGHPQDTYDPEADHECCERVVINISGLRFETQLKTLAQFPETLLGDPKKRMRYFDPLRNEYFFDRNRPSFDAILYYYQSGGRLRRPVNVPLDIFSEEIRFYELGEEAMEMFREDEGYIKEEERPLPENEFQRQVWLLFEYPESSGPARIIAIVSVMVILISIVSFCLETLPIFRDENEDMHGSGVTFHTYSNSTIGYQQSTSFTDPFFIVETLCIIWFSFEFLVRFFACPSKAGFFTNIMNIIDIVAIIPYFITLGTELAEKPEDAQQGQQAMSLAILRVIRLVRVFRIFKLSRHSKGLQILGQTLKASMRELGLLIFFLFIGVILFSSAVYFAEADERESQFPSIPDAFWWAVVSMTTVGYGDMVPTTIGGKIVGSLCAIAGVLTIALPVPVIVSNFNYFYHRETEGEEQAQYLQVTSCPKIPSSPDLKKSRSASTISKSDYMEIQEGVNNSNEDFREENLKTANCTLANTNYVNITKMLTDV", "experiment": "Whole-cell patch-clamp of cloned hKv1.2", "format": "cell-based"}, "hERG channels": {"tested_on": "T5, hERG channels", "T5 construct": "expressed in transfected cells; gift of Craig January, University of Wisconsin", "experiment": "Whole-cell patch-clamp of hERG tail currents in HEK293 cells", "format": "cell-based, human", "conditions": "13b 1 µM; caffeic acid, flufenamic acid 10 µM (Table S1)"}, "hERG": {"tested_on": "T6, hERG", "T6 construct": "expressed in transfected cells; gift of Craig January, University of Wisconsin", "experiment": "Whole-cell patch-clamp of hERG tail currents in HEK293 cells", "format": "cell-based, human", "conditions": "human, HEK293 cells expressing hERG, pH 7.4; hERG; compound 10 µM; read-out: % of control at 10 µM"}, "[2]": {"tested_on": "mixed KCa3.1 and KCa2.3 currents in PCAEC", "experiment": "Whole-cell patch-clamp of KCa currents in porcine coronary artery endothelial cells", "format": "cell-based"}, "[3]": {"tested_on": "calcium-activated chloride channels", "conditions": "previously shown; no reference given; read-out: reported EC50, calcium-activated chloride channels; cited from earlier work"}, "[4]": {"tested_on": "non-selective cation channels", "conditions": "previously shown; no reference given; read-out: reported EC50, non-selective cation channels; cited from earlier work"}},
  "note": "Where two headings read alike, the source gives them in different places.",
  "data": [
    {"smiles": "O=C(O)c1ccccc1Nc1cccc(C(F)(F)F)c1", "note": "[Flufenamic Acid, 2-(3-(trifluoromethyl)phenylamino) benzoic acid, reference compound]", "values": [
      {"measurement": "remaining activity at 1 µM", "setting": "[1]; KCa3.1 whole-cell current, 3T3 fibroblasts, 1 µM free Ca2+ in pipette, compound 1 µM, mean ± SEM, n ≥3, read-out: % of control at 1 µM", "result": "65 ± 4", "unit": "%"},
      {"measurement": "remaining activity at 10 µM", "setting": "[1]; KCa3.1 whole-cell current, 3T3 fibroblasts, 1 µM free Ca2+ in pipette, compound 10 µM, mean ± SEM, n ≥3, read-out: % of control at 10 µM", "result": "13 ± 5", "unit": "%"},
      {"measurement": "remaining activity at 50 µM", "setting": "[1]; KCa3.1 whole-cell current, 3T3 fibroblasts, 1 µM free Ca2+ in pipette, compound 50 µM, mean ± SEM, n ≥3, read-out: % of control at 50 µM", "result": "2.5 ± 0.3", "unit": "%"},
      {"measurement": "remaining activity at 10 µM", "setting": "[1]; read-out: KCa3.1 current blocked, % of control", "result": "6 ± 1", "unit": "%"},
      {"measurement": "KCa3.1 blocking effect (in words)", "setting": "[1]; whole-cell, 3T3 fibroblasts, concentrations up to 50 µM as in Table 1", "result": "Complete inhibition"},
      {"measurement": "EC50", "setting": "[1]; whole-cell, 3T3 fibroblasts, read-out: EC50 of KCa3.1 inhibition", "result": 1600, "unit": "nM"},
      {"measurement": "remaining activity at 10 µM", "setting": "hKCa2.3; COS-7, hKCa2.3, compound 10 µM, mean ± SEM, n ≥ 3, read-out: % of control at 10 µM", "result": "104 ± 5", "unit": "%"},
      {"measurement": "remaining activity at 50 µM", "setting": "hKCa2.3; COS-7, hKCa2.3, compound 50 µM, mean ± SEM, n ≥ 3, read-out: % of control at 50 µM", "result": "100 ± 2", "unit": "%"},
      {"measurement": "KCa2.3 blocking effect (in words)", "setting": "hKCa2.3; micromolar concentrations", "result": "no blocking effects"},
      {"measurement": "potentiation of KCa1.1", "setting": "KCa1.1; 10 µM", "result": 2.7, "unit": "fold"},
      {"measurement": "% of control at 10 µM", "setting": "KCa1.1; hKCa1.1, compound 10 µM", "result": "270 ± 106", "unit": "%"},
      {"measurement": "hKv1.2 blocking effect (in words)", "setting": "hKv1.2; flufenamic acid and caffeic acid 10 and 50 µM, 13c 1 µM", "result": "did not block"},
      {"measurement": "remaining activity at 10 µM", "setting": "hKv1.2; hKv1.2, compound 10 µM, read-out: % of control at 10 µM", "result": "106 ± 5", "unit": "%"},
      {"measurement": "remaining activity at 50 µM", "setting": "hKv1.2; hKv1.2, compound 50 µM, read-out: % of control at 50 µM", "result": "100 ± 2", "unit": "%"},
      {"measurement": "hERG effect (in words)", "setting": "hERG channels", "result": "slight potentiation"},
      {"measurement": "activity at 10 µM", "setting": "hERG", "result": "116 ± 15", "unit": "%"},
      {"measurement": "mixed KCa3.1/KCa2.3 current, % of control", "setting": "[2]; 10 µM, n = 2", "result": "25±3", "unit": "%"},
      {"measurement": "mixed KCa3.1/KCa2.3 current, % of control", "setting": "[2]; 50 µM, n = 1", "result": 3, "unit": "%"},
      {"measurement": "EC50", "setting": "[3]", "result": "~30", "unit": "µM"},
      {"measurement": "EC50", "setting": "[4]", "result": "~5", "unit": "µM"}
    ]}
  ]
}
